For series [1] the following is noted: in vivo.
Procedure: Study Objectives: To evaluate whether HIM2 doses, when titrated, are able to maintain 2-hour post-prandial blood glucose levels consistent with the pre-study range between 80-250 mg/dL as compared to insulin lispro and to evaluate the safety profile for HIM2. Patient Population: Adult patients with type 1 diabetes participated in the study. […] Design and Methods: A multicenter, dose titration, randomized, insulin lispro controlled, parallel, open-label study was conducted. A 2-day inpatient period was provided to establish optimal basal rate. A 5-7 day run-in period (maintained optimized basal rate; insulin requirements, episodes of hypoglycemia or hyperglycemia, dietary intake and physical activity recorded) was provided. A 3-day inpatient dosing period was performed. Carbohydrate intake was individualized (40% of total calories, equally divided among 4 meals during each study day). Basal insulin (CSII) was unchanged throughout the 3-day dosing period. Initial Doses: HIM2 0.25 mg/kg (7.2 U/kg; 1 mg of insulin=28.7 units of insulin), p.o., in a formulation shown in Table 1, 10 minutes prior to meal, HIM2 0.125 mg/kg (3.6 U/kg; 1 mg of insulin=28.7 units of insulin), p.o., in a formulation shown in Table 1, 120 minutes post meal, and Insulin lispro (commercially available from Eli Lilly & Co., Indianapolis, Ind.) (hereinafter “Lispro”), 0.1 U/kg (0.003 mg/kg; 1 mg of insulin=28.7 units of insulin), s.c., 15 minutes prior to meal. Doses were adjusted as necessary with the next scheduled dose according to the dose titration rules described in Table 2; however, no dose titration was allowed during study day 3.
Assays: Plasma glucose: glucose oxidase-based enzymatic assay. Plasma insulin: RIA method (Linco Research, St. Charles, Mo.). Efficacy Variables: The following variables were evaluated to determine efficacy of HIM2 compared to Lispro. (1) Percentage of patients able to maintain 2-hour postprandial blood glucose levels consistent with pre-study values between 80-250 mg/dL on Day 3 (HIM2 compared to insulin lispro). (2) Daily mean plasma glucose on Day 3. (3) Postprandial glucose at 2 hours during Day 3. (4) Number of rescue interventions (hypoglycemia). Safety Variables: Adverse events, vital signs, clinical chemistry, hematology, urinalysis, and ECG monitoring. Data Analysis: A comparison of proportion of patients within target glucose range (80-250 mg/dL) was analyzed. The daily mean plasma glucose AUC was analyzed using a t-test. The Day 3-2 hour post-prandial glucose was analyzed using a t-test. Comparison of rates for hypoglycemic events was analyzed using glucose 50-60 mg/dL, glucose ≦50 mg/mL, and number of rescue interventions. Demographics: A total of 31 patients were enrolled and analyzed in this study (15 M/16 F).
Series [2] in a line: Dose titration study of oral HIM2 vs. insulin lispro: glucodynamics. Type of series: in vivo, human. To be noted: adult type 1 diabetes patients; for Day 3 - 2 Hour Post-prandial Glucose, Breakfast (Mean ± SEM) / Day 3 - 2 Hour Post-prandial Glucose, Dinner (Mean ± SEM) / Day 3 - 2 Hour Post-prandial Glucose, Evening Snack (Mean ± SEM) / Day 3 - 2 Hour Post-prandial Glucose, Lunch (Mean ± SEM): basal CSII, HIM2 p.o., Lispro s.c., titrated doses; for Day 3 - 2 Hour Post-prandial Glucose, Breakfast (Mean ± SEM): after breakfast, p = 0.28; for Day 3 - 2 Hour Post-prandial Glucose, Dinner (Mean ± SEM): after dinner, p = 0.07; for Day 3 - 2 Hour Post-prandial Glucose, Evening Snack (Mean ± SEM): after evening snack, p = 0.24; for Day 3 - 2 Hour Post-prandial Glucose, Lunch (Mean ± SEM): after lunch, p = 0.29; for Day 3 - Daily Mean (±SEM) Plasma Glucose AUC: total 24-hour AUC divided by 1440 (time-adjusted), p = 0.46; for Patients with average 2-hour post-prandial glucose levels consistent with pre-study values (range 80-250 mg/dL): Fisher's exact test p=0.42. The method, then:
A 3-day inpatient dosing period was performed.
Assays: Plasma glucose: glucose oxidase-based enzymatic assay. Plasma insulin: RIA method (Linco Research, St. Charles, Mo.). […] (2) Daily mean plasma glucose on Day 3. (3) Postprandial glucose at 2 hours during Day 3. (4) Number of rescue interventions (hypoglycemia).

Take “Lys^B29-Hexyl-PEG7-Oligomer-Conjugated Insulin [HIM2]”: in series [1], the “Documented serious adverse event for hypoglycemia” value is given as “One”; the “Hypoglycemic events that required rescue intervention” value is reported as “significantly lower”; the “Number and frequency of gastrointestinal side effects (primarily unpleasant taste and diarrhea)” value is reported as “occurred more frequently”; the “Number of hypoglycemic events (overall assessment)” value was “trend toward fewer events”. In addition, in series [2], the “Day 3 - 2 Hour Post-prandial Glucose, Breakfast (Mean ± SEM)” value was found to be 192.3 ± 19.4; the “Day 3 - 2 Hour Post-prandial Glucose, Dinner (Mean ± SEM)” value was found to be 249.0 ± 19.3; the “Day 3 - 2 Hour Post-prandial Glucose, Evening Snack (Mean ± SEM)” value came to 231.4 ± 18.4; the “Day 3 - 2 Hour Post-prandial Glucose, Lunch (Mean ± SEM)” value was determined as 232.9 ± 21.0. In series [2], the “Day 3 - Daily Mean (±SEM) Plasma Glucose AUC” value stood at 182.0 ± 10.0 mg/dL and the “Patients with average 2-hour post-prandial glucose levels consistent with pre-study values (range 80-250 mg/dL)” value worked out at 63%.
In the case of Insulin lispro [reference compound], in series [2], the “Day 3 - 2 Hour Post-prandial Glucose, Breakfast (Mean ± SEM)” value is reported as 158.2 ± 24.3; the “Day 3 - 2 Hour Post-prandial Glucose, Dinner (Mean ± SEM)” value worked out at 195.3 ± 20.6; the “Day 3 - 2 Hour Post-prandial Glucose, Evening Snack (Mean ± SEM)” value was determined as 197.9 ± 20.4; the “Day 3 - 2 Hour Post-prandial Glucose, Lunch (Mean ± SEM)” value stood at 202.6 ± 16.1. In addition, in series [2], the “Day 3 - Daily Mean (±SEM) Plasma Glucose AUC” value is 170.6 ± 11.8 mg/dL and the “Patients with average 2-hour post-prandial glucose levels consistent with pre-study values (range 80-250 mg/dL)” value worked out at 83%.

The values above are taken from patent publication US7601688B2, “Methods of reducing hypoglycemic episodes in the treatment of diabetes mellitus” (Biocon Limited, priority 2001, dated 2009).
